# Measured values reported in patent US4851521A, “Esters of hyaluronic acid” (priority 1985, dated 1989).
# Key:
# [1] = tested on: dextran-induced aseptic (exudative) phlogosis in rabbit eye; experiment: Anti-inflammatory activity: dextran-induced aseptic (exudative) phlogosis in rabbit eye; assay type: in vivo; conditions: for eyes without signs of phlogosis out of the total number of eyes treated: 3 drops every 6 hours, 4 treated eyes; for antiinflammatory activity (in words): compared with the corresponding cortisones
# Experimental: 9 hyaluronic esters of cortisone, hydrocortisone and fluorocortisone (9 fluorohydrocortisone) identified by the code names HYC1-HYC9 were tested. Table 1 describes these compounds and gives the percentages of the number of carboxylic groups of HY which are esterified with the above corticosteroids, and where applicable the percentage esterified with simple aliphatic alcohols and those salified with alkaline metals (Na):
# Aseptic (exudative) phlogosis was induced in 48 rabbits by intraocular injection of dextran (1% in saline, 0.1 ml). The various products were administered by instillation in the right eye (RE) of the rabbits, while in the left eye (LE) only vehicle was instilled.
# The treament (3 drops every 6 hours) was begun immediately after the injection of dextran and was continued for 16 days.
# Both eyes of each rabbit were observed through a slit lamp. In particular the following were examined: the state of the conjunctiva and corneal epithelium, the anterior chamber (presence of Tyndall effect), state of the iris and of the posterior segment of the eye. With a Goldmann lens, the state of the back of the eye was examined. The presence of signs of inflammation (hyperemia, exudate, cloudiness of the liquids, etc.) was recorded.
# Values are expressed as percentages (number of eyes without signs of phlogosis out of the total number of eyes treated). In brackets are the number of treated eyes.
# [2] = Absorption and bioavailability: plasma levels of hydrocortisone in rats; assay type: in vivo, male Sprague-Dawley rats
# Experimental: Male Sprague-Dawley rats, with a body weight of 250-350 gr were used, obtained from Charles River-Calco (Como), fed ad libitum with water and compound feed in pellets, with the code name of 4RF 21, produced by "Italiana Mangimi", licensee of Charles River.
# Hydrocortisone was administered in the form of sodium hemisuccinate salt at the dose of 1.34 mg/kg (corresponding to 1 mg/kg of hydrocortisone base) by general intravenous route and at the dose of 1.34 mg/kg and 2.68 mg/ kg (corresponding to 2 mg/ kg of hydrocortisone base) by subcutaneouos route (the i.v. route was considered in order to determine the pharmacokinetic parameters which serve as a comparison for the evaluation of absorption of any other administration route).
# The three HYC derivatives were administered by subcutaneous route at the dose of 6.5 and 13 mg/kg (doses corresponding to about 1 and 2 mg/kg in hydrocortisone base). […] All the compounds were injected at a constant volume of 1 ml/kg.
# After administration, 0.3 ml of blood was drawn from each animal by cardiac puncture in the presence of anticoagulant (sodium heparin).
# Blood drawing times were as follows: *15 mins, 30 mins, 60 mins, 120 mins, 180 min, 300 mins, 360 mins, 420 mins, 480 mins (*limited to the intraveneous route).
# The hydrocortisone was dosed by radioimmunoassay method (Cortisolo Kit, Biodata, cod. 10394) using iodate tracing. […] The linearity of the method comes between 1 and 1000 ng/ml. The observation limit is 1 ng/ml.
# The dosage of the cortisolemia in the rat is not influenced either by the base levels or by the circadian rhythms of this hormone, as the metabolic pattern of the endogenous glucocorticoid hormones in the rat, leads to the production of corticosterone and not cortisol (see E. L. Green: Biology of the laboratory mouse.)
# In Table 3 are reported the results of the average plasma levels of hydrocortisone, after i.v. and s.c. injection (1 and 2 mg/kg). […] In Table 4 are reported the pharmacokinetic parameters of cortisol calculated graphically from the plasmatic decline curves. In Table 3 are reported the average levels of cortisol after subcutaneous administration of the three HYC derivatives at doses of 6.5 and 13 mg/kg (corresponding to about 1 and 2 mg/kg in hydrocortisone base). In Table 4 are reported the pharmacokinetic parameters relative to cortisol calculated graphically with the method of residues from the plasma absorption curve of the three HYC products.
# [3] = 10 days from start of phlogosis
# [4] = 12 days from start of phlogosis
# [5] = 14 days from start of phlogosis
# [6] = 16 days from start of phlogosis
Molecule,eyes without signs of phlogosis out of the total number of eyes treated ([1]; 2 days from start of phlogosis) [%],eyes without signs of phlogosis out of the total number of eyes treated ([1]; 4 days from start of phlogosis) [%],eyes without signs of phlogosis out of the total number of eyes treated ([1]; 6 days from start of phlogosis) [%],eyes without signs of phlogosis out of the total number of eyes treated ([1]; 8 days from start of phlogosis) [%],"eyes without signs of phlogosis out of the total number of eyes treated [1, 3] [%]","eyes without signs of phlogosis out of the total number of eyes treated [1, 4] [%]","eyes without signs of phlogosis out of the total number of eyes treated [1, 5] [%]","eyes without signs of phlogosis out of the total number of eyes treated [1, 6] [%]","linearity of kinetics (in words) ([2]; cortisol plasma kinetics, dose dependence)","Cmax (in words) ([2]; rat, in vivo)","Tmax ([2]; rat, in vivo, sc) [min]","AUC at 8 h ([2]; rat, in vivo, sc, 1 mg/kg) [ng·h/mL]","Tmax ([2]; rat, in vivo, sc, 1 mg/kg) [min]","bioavailability ([2]; rat, in vivo, sc, 1 mg/kg) [%]","half-life ([2]; rat, in vivo, sc, 1 mg/kg) [min]","k el ([2]; rat, in vivo, sc, 1 mg/kg) [s⁻¹]",antiinflammatory activity (in words) [1]
"C[C@]12CCC(=O)C=C1CC[C@@H]1[C@@H]2C(=O)C[C@@]2(C)[C@H]1CC[C@]2(O)C(=O)CO [Cortisone, cortisone, reference compound]",0.0,0.0,0.0,0.0,25.0,50.0,100.0,100.0,,,,,,,,,
"C[C@]12CCC(=O)C=C1CC[C@H]1[C@@H]3CC[C@](O)(C(=O)CO)[C@@]3(C)C[C@H](O)[C@@]12F [Fluorocortis., 9 fluorohydrocortisone, reference compound]",0.0,0.0,0.0,0.0,25.0,50.0,100.0,100.0,,,,,,,,,
"C[C@]12CCC(=O)C=C1CC[C@@H]1[C@@H]2[C@@H](O)C[C@@]2(C)[C@H]1CC[C@]2(O)C(=O)CO [Hydrocortisone, hydrocortisone, reference compound]",0.0,0.0,0.0,25.0,25.0,50.0,100.0,100.0,linear,the same as the i.v. route levels at the same dose,~30,192,30,70.3,270,4.17e-05,
(mixed ethanol and cortisone ester (C21) of hyaluronic acid (HY) [HYC4],0.0,0.0,25.0,50.0,50.0,100.0,100.0,100.0,,,,,,,,,most efficient of these derivatives
(mixed) ethanol and fluorocortisone ester (C21) of hyaluronic acid (HY) [HYC6],0.0,0.0,25.0,50.0,50.0,100.0,100.0,100.0,,,,,,,,,most efficient of these derivatives
(partial and mixed) ethanol and cortisone ester of hyaluronic acid (HY) [HYC7],0.0,0.0,0.0,25.0,50.0,100.0,100.0,100.0,,,,,,,,,
(partial and mixed) ethanol and fluorocortisone esters (C21) of hyaluronic acid (HY) [HYC9],0.0,0.0,0.0,25.0,25.0,50.0,100.0,100.0,,,,,,,,,
(partial) cortisone ester C21) of hyaluronic acid (HY) [HYC1],0.0,0.0,0.0,25.0,50.0,50.0,100.0,100.0,,,,,,,,,
(partial) fluorocortisone ester (C21) of hyaluronic acid (HY) [HYC3],0.0,0.0,0.0,25.0,25.0,100.0,100.0,100.0,,,,,,,,,
